Biological target: T1, 14-3-3γ/Tau pS214 interaction (Homo sapiens, UniProt P61981)
T1 construct: made in house; host or cells: NiCo21 (DE3) E. coli
T1 sequence (P61981 1-247): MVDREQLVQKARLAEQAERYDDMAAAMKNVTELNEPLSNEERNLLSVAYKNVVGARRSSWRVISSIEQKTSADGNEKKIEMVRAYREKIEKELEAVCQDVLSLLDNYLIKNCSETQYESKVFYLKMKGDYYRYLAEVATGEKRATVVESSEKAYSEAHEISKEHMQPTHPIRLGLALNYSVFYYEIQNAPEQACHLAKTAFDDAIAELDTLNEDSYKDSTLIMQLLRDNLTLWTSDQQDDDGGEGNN
Test: Fluorescence anisotropy 14-3-3γ titration with compound and monovalent Tau pS214 peptide
Format: binding
Conditions: for apparent cooperativity factor (app. α), 14-3-3γ/Tau pS214: 2D titrations, 14-3-3γ titrated at varied compound concentrations, saturation of the ratio
Protocol: FA assays in which 14-3-3γ was titrated to a constant concentration of compound (250 μM) in the presence of the distinct monovalent Tau peptide (10 nM) were performed.
The determined stabilization factors are concentration-dependent (here 250 μM of compound) and might differ based on assay design. […] The app. α-factors of these compounds for both 14-3-3/Tau complexes were determined by 14-3-3γ titrations in the presence of varied concentrations of the particular compound (Fig. 5d and e). Both compounds reached saturation for both 14-3-3γ/Tau complexes enabling accurate determination of the α-factor. The app. α-factors of aldehydes 1 and 18 were plotted for both 14-3-3γ/Tau complexes to investigate phospho-binding site selective cooperativity (Fig. 5f and h). To do so, the stabilization factors at a given compound concentration were plotted against the compound concentration, leading to the determination of the app. α-factors. […]
chromatography (HisTrap high performance cartridges, Cytiva). Typically two 5 mL columns were used for a 2 L culture in which the lysate was loaded on the column, washed with 10 CV wash buffer (50 mM Hepes, pH 8.0, 300 mM NaCl, 25 mM imidazole, 2 mM βME), and eluted with several fractions (2-4 CV) of elution buffer (50 mM Hepes, pH 8.0, 300 mM NaCl, 250 mM imidazole, 2 mM βME). Fractions containing the 14-3-3 protein were combined and dialyzed into 25 mM HEPES pH 8.0, 200 mM NaCl, 10 mM MgCl2, 2 mM βME, followed by dialysis into 25 mM HEPES, 100 mM NaCl, 10 mM MgCl2, 500 μM TCEP (adjusted to pH 8.0). Dialyzed protein was concentrated to ∼40 mg/mL, analyzed by Q -Tof LC/MS, and aliquots were flash -frozen for storage at −80 °C. […]
0.1% (v/v) Tween20, 0.1% (w/v) BSA). Dilution series were made in polystyrene low -volume 384 -well plates (Corning #4514, Black Round Bottom). Measurements were performed directly after plate preparation, using a Tecan SPARK plate reader at room temperature ( λex: 485±20 nm; λem: 535±25 nm; mirror: automatic; flashes: 30; settle time: 1 ms; gain: optimal; Z -position: calculated from well). Wells containing only fluorescein labelled peptide were used to set as G -factor calibrated from these wells. All data were analyzed using GraphPad Prism (10.0.1) and fitted with a four -parameter logistic model (4PL) to determine binding affinities (dissociation constant, KD). All data shown is background corrected for the signal without 14 -3-3ζ and the mean and standard deviation of technical duplicate is plotted, assay performed in a scientific duplicate for hit compounds.
Fluorescence Anisotropy – 14-3-3 titrations in the presence of compound To characterize the affinity of the Tau peptides for 14-3-3 in the presence of compound, 14-3-3ζ or γ was titrated in a 2-fold dilution series starting at 400 (for the 14-3-3ζ titrations to Tau pS2) or 800 (for the 14-3-3γ titrations to Tau pS214 or pS324) µM. 14-3-3 was added to 10 nM of fluorescein-labeled peptide (Tau pS2, Tau pS214 or Tau pS324) in the presence of 250 µM compound (1% DMSO). The assays were performed in a similar way as described above. Data shown is the average and standard deviation of a technical duplicate, top plateau corrected where needed, assay performed in a scientific duplicate. […]
The peptide screen was performed in a similar way as the 14-3-3ζ titration in the precence of compound.
14-3-3ζ was titrated in a 2-fold dilution series (starting at 400 µM 14-3-3ζ) to 100 nM of fluorescein-labeled peptides and 250 µM compound 18 (1% DMSO) in FA buffer (10 mM HEPES pH 7.4, 150 mM […]
Data shown is the average of a scientific triplicate. […]
DSF was performed using 40 µl samples containing 2.5 µM 14 -3-3ζ, 25 µM Tau peptide (Tau pS2, Tau pS214 or Tau pS324), […] (1% DMSO) and 5x ProteoOrange (Lumiprobe, 5000x stock in DMSO) in 10 mM HEPES, 150 mM NaCl, 50 µM TCEP (pH 7.4). The samples were heated from 35 °C to 79°C at a rate of 0.3 °C per 15 s in a C FX96 Touch Real-Time PCR Detection System (Bio -Rad). Fluorescence […]

Row | Compound | apparent cooperativity factor (app. α), 14-3-3γ/Tau pS214 | SF250μM for the 14-3-3γ/Tau pS214 complex (250 μM compound, 10 nM Tau pS214 peptide, internal DMSO reference)
1 | O=Cc1ccc(-n2ccnc2-c2ccccc2)cc1Br [Compound 1] | 3.8 | –
2 | CCc1ccc(-c2nccn2-c2ccc(C=O)c(Br)c2)cc1 [Compound 18] | 10.2 | 8.6

— article PMC11892739, “Site-specific molecular glues for the 14-3-3/Tau pS214 protein–protein interaction via reversible covalent imine tethering” (RSC Medicinal Chemistry, 2025)
